# Experimental data as given in US20210378240A1, “OXETANYLPHENOXYQUINOLINES AND ANALOGUES” (Bayer Aktiengesellschaft, priority 2018, published 2021).
# Experimental: In table 1, the logP values were determined in accordance with EEC Directive 79/831 Annex V.A8 by HPLC (High Performance Liquid Chromatography) on a reversed-phase column (C 18), using the method to described below:
# temperature: 40° C.; mobile phases: 0.1% aqueous formic acid and acetonitrile; linear gradient from 10% acetonitrile to 95% acetonitrile;
# Calibration was carried out using unbranched alkan-2-ones (comprising 3 to 16 carbon atoms) with known logP values (determination of the logP values by the retention times using linear interpolation between two successive alkanones). lambda-max-values were determined using UV-spectra from 200 nm to 400 nm and the peak values of the chromatographic signals.
compound,measurement,value
"Cc1nc2c(F)c(F)ccc2cc1Oc1cccc(I)c1C(O)C(C)(C)CO (centres unmarked) [IIa.02, 1-{2-[(7,8-difluoro-2-methylquinolin-3-yl)oxy]-6-iodophenyl}-2,2-dimethylpropane-1,3-diol]",chromatographic logP,3.57
"Cc1nc2c(F)c(F)ccc2cc1Oc1ccccc1C1COC1 [I.02, 7,8-difluoro-2-methyl-3-[2-(oxetan-3-yl)phenoxy]quinoline]",chromatographic logP,3.33
"Nc1cccc(F)c1OC1COC1 [3-fluoro-2-(oxetan-3-yloxy)-aniline, 3-fluoro-2-(oxetan-3-yloxy)aniline]",chromatographic logP,1.32
"Cc1nc2c(F)c(F)ccc2cc1Nc1cccc(F)c1CN1CC(F)(F)C1 [I.10, N-{2-[(3,3-difluoroazetidin-1-yl)methyl]-3-fluorophenyl}-7,8-difluoro-2-methylquinolin-3-amine]",chromatographic logP,4.33
"Cc1nc2c(F)c(F)ccc2cc1Oc1ccccc1N1CC2(COC2)C1 [I.03, 7,8-difluoro-2-methyl-3-[2-(2-oxa-6-azaspiro[3.3]heptan-6-yl)phenoxy]quinoline]",chromatographic logP,3.48
"CC1(c2ccccc2CO)COC1 [XIV.01, [2-(3-methyloxetan-3-yl)phenyl]methanol]",chromatographic logP,1.3
"Cc1nc2ccccc2cc1Oc1cccc(F)c1C=O [IV.03, 2-fluoro-6-[(2-methylquinolin-3-yl)oxy]benzaldehyde]",chromatographic logP,2.32
"Cc1nc2c(F)c(F)ccc2cc1Oc1cccc(F)c1C=O [IV.05, 2-[(7,8-difluoro-2-methylquinolin-3-yl)oxy]-6-fluorobenzaldehyde]",chromatographic logP,3.1
"Fc1cccc(Br)c1CN1CC(F)(F)C1 [IX_C, 1-(2-bromo-6-fluorobenzyl)-3,3-difluoroazetidine]",chromatographic logP,1.89
O=[N+]([O-])c1cccc(F)c1OC1COC1 [3-(2-fluoro-6-nitrophenoxy)oxetane],chromatographic logP,2
"Cc1nc2c(F)c(F)ccc2cc1Oc1ccccc1C=O [IV.04, 2-[(7,8-difluoro-2-methylquinolin-3-yl)oxy]benzaldehyde]",chromatographic logP,3.21
"Cc1nc2c(F)c(F)ccc2cc1Cc1ccccc1C1(C)COC1 [I.04, 7,8-difluoro-2-methyl-3-[2-(3-methyloxetan-3-yl)benzyl]quinoline]",chromatographic logP,3.47
"Cc1nc2c(F)c(F)ccc2cc1Oc1ccccc1C1OCC1(C)C (centres unmarked) [I.01, 3-[2-(3,3-dimethyloxetan-2-yl)phenoxy]-7,8-difluoro-2-methyl-quinoline]",chromatographic logP,4.44
"Cc1nc2c(F)c(F)ccc2cc1Oc1ccccc1C(O)C(C)(C)CO (centres unmarked) [IIa.01, 1-{2-[(7,8-difluoro-2-methylquinolin-3-yl)oxy]phenyl}-2,2-dimethylpropane-1,3-diol]",chromatographic logP,2.96
"O=Cc1c(F)cccc1Oc1cnc2ccccc2c1 [IV.02, 2-fluoro-6-(quinolin-3-yloxy)benzaldehyde]",chromatographic logP,2.43
"CC1(c2ccccc2CBr)COC1 [XIII.01, 3-[2-(bromomethyl)phenyl]-3-methyloxetane]",chromatographic logP,2.73
"Cc1nc2c(F)c(F)ccc2cc1Cc1ccccc1Br [3-(2-bromobenzyl)-7,8-difluoro-2-methylquinoline]",chromatographic logP,4.26
"Cc1nc2c(F)c(F)ccc2cc1Nc1cccc(F)c1OC1COC1 [I.15, 7,8-difluoro-N-[3-fluoro-2-(oxetan-3-yloxy)phenyl]-2-methylquinolin-3-amine]",chromatographic logP,3.28
"Cc1nc2c(F)c(F)ccc2cc1Cc1ccccc1C#CC1COC1 [I.14, 7,8-difluoro-2-methyl-3-[2-(oxetan-3-ylethynyl)benzyl]quinoline]",chromatographic logP,3.66
"O=Cc1ccccc1Nc1cnc2c(F)cccc2c1 [IV.01, 2-[(8-fluoroquinolin-3-yl)amino]benzaldehyde]",chromatographic logP,2.88
